{"source": "patent US8728797B2", "about": "“Yeast membrane protein expression system and its application in drug screening” (priority 2001, dated 2014)", "key": {"AD-PDR5 (Pdr5p)": {"test_system": "AD-PDR5 (Pdr5p)", "assay": "Disk diffusion assay, AD-PDR5", "assay_type": "cell-based, S. cerevisiae", "details": "AD-pABC as negative control, 30° C., 48 h", "method": "(§1) The cells were spread on CSM-agar plates and exposed to the drugs or chemicals applied to filter disks and incubated at 30° C. for 48 h. The amounts of individual drugs are given in the Materials and Methods section of Example 3. Rhodamine 6G and rhodamine 123 were dissolved in ethanol and the other antifungals were dissolved in DMSO.\n(§2) Drug susceptibility was measured using disk assays on CSM-URA plates (containing 1.5% w/v agar). Yeast cells (200 μl ml of 5×10^6 cells/ml) were spread on the plates. 10 μl of drug solution or solvent control were spotted onto sterile Whatman paper disks on the pre-spread plates. The following amounts (nmoles) of drugs were applied to individual disks: fluconazole, 633 (Pfizer Ltd., Sandwich, Kent, United Kingdom); itraconazole, 0.23 (Janssen); miconazole, 0.42 (Janssen); cycloheximide, 0.71 (Sigma); rhodamine 6G, 100 (Sigma, Penrose, Auckland, N. Z.); rhodamine 123, 125 (Sigma); cerulenin 4.5 (Sigma); 5-flucytosine 100 (Sigma); amphotericin B, 97 (E. R. Squibb & Sons, Princeton, N.J.); nystatin 65 (Sigma). Agar plates were incubated at 30° C. for 48 h or until clear growth inhibition zones were visible."}, "AD-CDR1 (Cdr1p)": {"test_system": "AD-CDR1 (Cdr1p)", "assay": "Disk diffusion assay, AD-CDR1", "assay_type": "cell-based, S. cerevisiae", "details": "AD-pABC as negative control, 30° C., 48 h", "method": "as §1, §2"}, "AD124567 cells": {"test_system": "AD124567 cells", "assay": "Glucose-dependent rhodamine 6G efflux", "assay_type": "cell-based, S. cerevisiae", "details": "40 μM KN20, 5 minute preincubation", "method": "De-energised cells were pre-loaded with rhodamine 6G, as described in Materials and methods for Example 4. The efflux of rhodamine 6G at 30° C. was followed by direct measurement of fluorescence in cell supernatants following glucose (2 mM) addition to cell suspensions. (A) The kinetics of energy-dependent rhodamine 6G efflux in strains AD1002 (▪) and AD1-8u^− (●). The fluorescence in supernatants of AD1002 cells in the absence of added glucose is also shown (◯). (B) The effect of KN20 concentration on the energy-dependent efflux of rhodamine 6G from AD124567 cells. The indicated concentrations of KN20 were added to AD124567 cells preloaded with rhodamine 6G, the cells were preincubated for 5 minutes at 30° C. and glucose added to commence rhodamine efflux.\nA previously described method (Kolaczkowski, M et al. 1996) was adapted to measure rhodamine 6G (Sigma) efflux from whole cells. Yeast cells from exponentially growing cultures in YEPD (OD600 nm=0.5) were collected by centrifugation (3,000×g, 5 min, 20° C.) and washed three times with water. The washed cells were resuspended at a concentration of 0.5×10^6 to 1.0×10^7 cells per ml in HEPES-NaOH (50 mM, pH 7.0) containing 5 mM 2-deoxyglucose and 10 μM rhodamine 6G. […] The rhodamine 6G fluorescence of samples was measured using a Cary Eclipse spectrofluorimeter (Varian Inc, Victora Australia). […]"}, "Cdr1p ATPase": {"test_system": "Cdr1p ATPase", "assay": "Oligomycin sensitive ATPase/NTPase activity of AD1002 plasma membranes", "assay_type": "biochemical, C. albicans", "details": "ratio of inhibitory concentrations Cdr1p/Pdr5p", "method": "Membrane fractions were isolated from S. cerevisiae AD1002 (▪) or parental AD1-8u^− cells (●). ATPase assays were carried out at 30° C. for 30 min, as described in Materials and methods for Example 2. The oligomycin-sensitive activity was determined as the difference in ATPase activity in the presence and absence of 20 μM oligomycin. […] The results are the means (+/−SD) of four determinations carried out on two membrane preparations.\n(B) Inhibition profile with KN20 on the oligomycin-sensitive Cdr1p ATPase activity of plasma membranes from AD1002 minus the oligomycin-sensitive ATPase activity of plasma membranes from the isogenic AD1-8u^− strain.\nYeast were grown in YEPD, pH 5.5 at 30° C. until they reached late-exponential phase of growth (OD600 nm=7), washed twice in ice-cold distilled water, and incubated on ice for 30 min to minimize glucose-stimulated Pma1p activity. Cells were resuspended in homogenising medium (50 mM Tris pH 7.5, 2 mM EDTA and 1 mM phenylmethylsulfonyl fluoride) and disrupted using a Braun Homogeniser. Cell debris and unbroken cells were removed by centrifuging at 2,000×g at 4° C. for 10 min. A crude membrane fraction was isolated from the cell-free supernatant by centrifuging at 30,000×g at 4° C. for 45 min. Plasma membranes were prepared by centrifugation of the supernatant obtained after selective precipitation of mitochondria at pH 5.2 as described previously (Goffeau, A. and Dufour, J. P., 1988). The plasma membranes were resuspended in 10 mM Tris pH 7.0, 0.5 mM EDTA and 20% [v/v] glycerol and stored at −80° C. Protein was determined using a micro-Bradford (Bio-Rad Laboratories, Hercules, Calif. [Bradford, M. M., 1976]) assay with gamma-globulin as standard. Nucleotide triphosphatase activity was measured by incubating the plasma membrane fractions (10 μg) at 30° C. in a final volume of 120 μl containing 6 mM NTP, 7 mM MgSO4 in 59 mM MES-Tris buffer pH 6.0-8.0. To eliminate possible contributions from nonspecific phosphatases, vacuolar, or mitochondrial ATPases, 0.2 mM ammonium molybdate, 50 mM KNO3 and 10 mM NaN3, respectively, were included in assays (Monk B C, et al, 1991). Other ATPase inhibitors (20 μM oligomycin, 20 μM aurovertin B or 100 μM vanadate were added to the reaction where indicated. After 30 min the reaction was stopped by adding 130 μl of a solution containing 1% (w/v) SDS, 0.6 M H2SO4, 1.2% (w/v) ammonium molybdate and 1.6% (w/v) ascorbic acid. Inorganic phosphate released from NTPs was measured at 750 nm after 10 min incubation at room temperature."}}, "data": [{"compound": "OC(Cn1cncn1)(Cn1cncn1)c1ccc(F)cc1F", "note": "[fluconazole]", "values": [{"measurement": "resistance/sensitivity in disk diffusion assay", "setting": "AD-PDR5 (Pdr5p)", "value": "resistances"}, {"measurement": "resistance/sensitivity in disk diffusion assay", "setting": "AD-CDR1 (Cdr1p)", "value": "resistances"}]}, {"compound": "D-octapeptide NH2-Asn-Trp-Trp-Lys-Val-Arg-Arg-Arg-CONH2 with a single 4-methoxy-2,3,6-trimethylbenzenesulphonyl (Mtr) substituent on one tryptophan sidechain; Pdr5p inhibitor [KN20]", "values": [{"measurement": "inhibition of rhodamine 6G efflux", "setting": "AD124567 cells", "value": 50, "unit": "%"}, {"measurement": "Cdr1p ATPase inhibition concentration relative to Pdr5p ATPase", "setting": "Cdr1p ATPase", "value": 2.7, "unit": "fold"}]}]}
